According to paper PMC10616201, “Antioxidant and α-glucosidase inhibitory activities of compound isolated from Stachytarpheta jamaicensis (L) Vahl. leaves” (Scientific Reports, 2023):

Biological target: T1, α-glucosidase (EC 3.2.1.20; rat intestinal acetone powder)
T1 construct: gene Si; crude supernatant of rat intestinal acetone powder (Sigma 1639) in normal saline; native, unpurified; maltase activity read as glucose release
Experiment: glucose release from maltose, glucose kit, absorbance […] nm
Assay type: biochemical
Details: 10 mM maltose, 0.1 M buffer pH 6.9, 10 min, crude rat intestinal supernatant

- α-Glucosidase inhibition / IC50: 537.79 ± 45.04 µg/mL
Structure (SMILES): COC(=O)C1=CO[C@@H](O[C@@H]2O[C@H](CO)[C@@H](O)[C@H](O)[C@H]2O)[C@H]2[C@]1(O)[C@H](O)C[C@]2(C)O [compound 1, 6β-hydroxyipolamiide]
